These results are taken from patent EP3400955B1, “USE OF CRYPTONIN FOR TREATMENT OF CANCER” (Istanbul Universitesi Rektorlugu, priority 2016, dated 2025).

Read-outs that look alike come from different tables or passages of the source. Ends that are not written are not given here.

Series [1] relates to MCF-7 cells. The series is described as follows: Type of cell death by acridine orange/ethidium bromide double staining. It counts as cell-based. The conditions noted are these: 24 hours, mean +/- Standard Error. As to the method:
(§1) Cells were stained with acridine orange/ethidium bromide double staining method to morphologically analyze whether cryptonin-induced cell death occurs by a necrotic pathway or by an apoptotic pathway. For this purpose, breast cancer cells were plated in a 24-well plate, with 10,000 cells being present in each well and incubated for 24 hours at the above-mentioned different concentrations of antimicrobial peptides. After incubation, a mixture of acridine orange (Sigma) (100 µg/ml) /ethidium bromide stain (Sigma) (100 µg/ml) prepared in PBS was applied to the cells and the cells were visualized using a FITC/CY3 filter on a fluorescent microscope (Nikon DS5MCU2). 200 cells from each group were counted according to the staining pattern. Cells were grouped as viable, apoptotic and necrotic according to the staining pattern of their nuclei (Spector et al., 1998). Viable cells were distinguished as having green chromatin nuclei in an organized structure, apoptotic cells were distinguished as having green or orange fragmented nuclei, and necrotic cells were distinguished as normal colored but having orange nuclei like normal cells (Ribble et al., 2005).

For series [2], the system named is MDA-MB 231 cells. The description is as above. It counts as cell-based. The conditions noted are these: 24 hours, mean +/- Standard Error. As to the method:
as §1

Series [3] concerns 3T3 Fibroblast Cell Membrane. The conditions noted are these: 100 µg/ml, 24-hour incubation.
Protocol: MCF-7 and MDA-MB 231 and 3T3 fibroblast cells were plated into sterile round slides with a diameter of 12 mm in the wells in 24-well plate such that each well contained 50,000 cells. The following day, the medium was replaced with a medium containing cryptonin at a concentration of 100 µg/ml. After 24-hour incubation, the cells were washed 2 times with 0.1 M sodium cacodylate buffer (pH 7.2) and fixed with 2.5% glutaraldehyde prepared in 0.1 M sodium cacodylate buffer for 2 hours. After the first fixation, the cells were washed again with 0.1 M sodium cacodylate buffer and fixed with 1% osmium tetroxide prepared in 0.2 M sodium cacodylate buffer for 30 minutes for the second time. After the cells were washed with 0.2 M sodium cacodylate buffer, they were taken in an increasing series of ethyl alcohol. Dehydration was performed by incubation 3 times with 30% alcohol for 5 minutes, 3 times with 50% alcohol for 5 minutes, 2 times with 70% alcohol for 10 minutes, 2 times with 85% alcohol for 15 minutes, 2 times with 95% alcohol for 15 minutes and 3 times with 100% alcohol for 10 minutes. After the slides were air-dried, they were coated with golden by BioRad SC 502 coating device. The cells were examined with Jeol Neoscope JCM-500 scanning electron microscope and their photographs were taken (Vitale et al., 1998; Hilchie et al., 2011).
For series [4], the system named is erythrocytes. The conditions noted are these: dose of 25-200 µg/ml; Park et al. (2007); cited from earlier work.
In series [5] the test system is MCF-7 cells. The conditions noted are these: 24 hours, positive control = 100%. The protocol: (§2) The lactate dehydrogenase (LDH) release assay is based on the measurement of a cytoplasmic enzyme, lactate dehydrogenase, activity released from damaged cells (Lobner, 2000) and is used for the assessment of cellular cytotoxicity. The cytotoxic effect of cryptonin on MCF-7 and MDA-MB 231 breast cancer cell lines was determined by measuring the activity of lactate dehydrogenase (LDH) enzyme released from damaged cells and a Cytotoxicity Detection Kit, LDH (Roche Molecular Diagnostics, Germany) was used for this purpose.
(§3) In LDH test, a negative control, a control group for spontaneous LDH release from the cells, and a positive control group for maximum LDH release were studied, as well as experimental groups to which peptide was administered. […] For this purpose, doses of 10, 25, 50 and 100 µg/ml were administered for MCF-7 cells and doses of 7.5, 10, 25 and 50 µg/ml were administered for MDA-MB 231 cells, for 24 hours. Cells were grown in the flasks of 75 cm, then removed with trypsin-EDTA and centrifuged. Cells were suspended in medium at 5000 cells per 100 µl, and 100 µl of cell suspension was transferred to 96-well plates. All control groups and experimental groups were studied with 3 wells and the experiment was repeated 3 times. After a 24-hour incubation, the media of the control groups were refreshed. The medium of the experimental groups was replaced with a medium containing different concentrations of peptide. The lactate dehydrogenase enzyme activity released from the cells after the cells were incubated with cryptonin for 24 hours was determined following the manufacturer's instructions. 5 µl of lysis solution (2% Triton-X-100) was added to the wells of the positive control group and the plate was incubated for 15 minutes at 37°C. To measure LDH activity, 100 µl of the freshly prepared reaction mixture containing catalyst (Diaphorase/NAD^+ mixture) and dye solution (iodotetrazolium chloride (INT) and sodium lactate) was added to each well. After 30 minutes of incubation in the dark at room temperature, the reaction was stopped by the addition of 50 µL of stop solution (1N HCl) to each well. The plates were shaken for 10 seconds on an orbital shaker and the spectrophotometric absorbance was measured at a test wavelength of 490 nm and a reference wavelength of 690 nm. The results were determined as % cytotoxicity. The mean absorbance values of the negative control were subtracted from the control and experimental groups, the positive control group was considered to be 100% cytotoxic and the cytotoxicities were calculated by comparing the control and experimental groups with positive control group using the following formula: [formula]

The subject of series [6] is MDA-MB 231 cells. The conditions noted are these: 24 hours, positive control = 100%. As to the method:
as §2, §3

The test system of series [7] is 3T3 fibroblast cells.
Protocol: Yellow MTT is reduced to purple formazan crystals by the activity of mitochondrial dehydrogenases in viable cells. The intensity of the resulting purple color is directly proportional to the number of viable cells. MTT test was performed in 96-well plates. To this end, the cells grown in the flasks were removed by trypsin-EDTA, then collected by centrifugation and the cell pellet was suspended in the medium such that 5000 cells would be present per 100 µl. 5000 cells were plated in each well of the plate. In the following day, the medium in the wells was removed, fresh medium was added to the control group, and a medium containing anti-microbial peptide was added to the experimental groups at 8 different concentrations. This medium contained 10% serum.
Cells were exposed to different concentrations of antimicrobial peptide for 24 hours. At the end of this period, 30 µl of a solution of 3-(4,5-dimethylthiazol-2-yl)-2,5-diphenyltetrazolium bromide (MTT) was added to each well in the plate. […] The optical density was measured at a test wavelength of 570 nm and a reference wavelength of 630 nm. […] The mean absorbance values obtained from the control group were accepted as 100% cell viability and the values obtained from the wells treated with antimicrobial peptide were assessed versus control group.

Regarding GLLNGLALRLGKRALKKIIKRLCR [cryptonin], the Viable cell % in series [1] (10 µg/ml) is on record as 98.89±5%; in series [1] (25 µg/ml), 85.3±4.8%; in series [1] (50 µg/ml), 1.07±1.1%; in series [1] (100 µg/ml) it was 0.06±0.2%; in series [1] (200 µg/ml) it was 2.14±1.8%; in series [2] (10 µg/ml) it was 95.88±1.6%. For the same sequence, the Viable cell % in series [2] (25 µg/ml) was 95.53±2.9%; in series [2] (50 µg/ml), 45.13±4.1%; in series [2] (100 µg/ml), 0.04±0.1%; in series [2] (200 µg/ml) it was 0±0%. Also, the “effect on cell membrane (scanning electron microscope)” value in series [3] was “disrupted the cell membrane integrity by forming pores, slits and blebs”. For the same sequence, the hemolysis of erythrocytes in series [4] is given as 5%. Moreover, the “LDH release (% cytotoxicity)” value came out at 36.03±2.1% in series [5] (25 µg/ml); 84.1±1.7% in series [5] (50 ug/ml); 84.66±1.6% in series [5] (100 µg/ml); 7.09±0.7% in series [6] (7.5 µg/ml); 8.46±0.9% in series [6] (10 µg/ml); 24.24±2.1% in series [6] (25 µg/ml). Moreover, the “LDH release (% cytotoxicity)” value in series [6] (50 µg/ml) is given as 45.90±1%. For the same sequence, the fibroblast cell viability result in series [7] (dose range 25-200 µg/ml) was “significantly reduced”. For the same sequence, in series [7] (less at 10 µg/ml, more at 25, 50, 100 and 200 µg/ml, 24 hours, cells representing normal cells), the “number of viable cells” value is listed as “reduced the number of viable cells”.
